In patent US6294519A, “Method for treating ischemia” (University of Kentucky Research Foundation, priority 2000, dated 2001):

Test system: focal middle cerebral arterial occlusion (MCAO) ischemia
Conditions: for neurological deficits (behavior ranking 0 to 3): 4 mg/kg i.p. at 6.5, 4.5, 2.5 and 0.5 h prior to ischemia, 24 h reperfusion, mean±SEM, n=8, 0=normal, 3=severe; for neurological deficits (behavior ranking 0 to 3) / infarct volume reduction compared to control animals: 1 h MCAO; for infarct volume reduction compared to control animals / differences in MABP, pO2, pCO2, pH or rectal temperature versus control animals: 4 mg/kg i.p. x4 prior to ischemia; for infarct volume reduction compared to control animals / statistical significance of the infarct volume difference versus control: after 24 h of reperfusion; for statistical significance of the infarct volume difference versus control: significance at p<0.05; for differences in MABP, pO2, pCO2, pH or rectal temperature versus control animals: post ischemia

In the case of `CC(C)C[C@@H](NC(=O)[C@H](Cc1ccccc1)NC(=O)CNC(=O)[C@@H](C)NC(=O)[C@@H](N)Cc1ccc(O)cc1)C(=O)O` [DADLE, Tyr-D-Ala-Gly-Phe-D-Leu-enkephalin], the “neurological deficits (behavior ranking 0 to 3)” value was 1.73±0.20, the “infarct volume reduction compared to control animals” value was 12% and the “statistical significance of the infarct volume difference versus control” value was “not statistically significant”. The “differences in MABP, pO2, pCO2, pH or rectal temperature versus control animals” value was “no significant differences”.

With `CC(C)[C@H](NC(=O)[C@H](CC(=O)O)NC(=O)[C@H](Cc1ccccc1)NC(=O)[C@@H](C)NC(=O)[C@@H](N)Cc1ccc(O)cc1)C(=O)N[C@H](C(=O)NCC(N)=O)C(C)C` [deltorphin, Tyr-Ala-Phe-Asp-Val-Val-Gly-NH2] the “neurological deficits (behavior ranking 0 to 3)” value was 0.44±0.11, the “infarct volume reduction compared to control animals” value was 42% and the “statistical significance of the infarct volume difference versus control” value was “significantly reduced”. The “differences in MABP, pO2, pCO2, pH or rectal temperature versus control animals” value was “no significant differences”.
